Source: patent publication US6841567B1, “Cyclic substituted fused pyrrolocarbazoles and isoindolones” (Cephalon, Inc., priority 1999, dated 2005)

Columns and labels:
[1] = target: T1, PDGFβ receptor kinase domain (recombinant human PDGFRβ) (Homo sapiens, UniProt P09619); experiment: Inhibition of platelet derived growth factor receptor kinase activity (ELISA); format: biochemical; details: for inhibition at 0.3 µM: read-out: PDGFRβ % inh @ 300 nM (values in parentheses)
T1 construct: kinase activity of baculovirus-expressed PDGFβ receptor kinase domain; made in house; host or cells: baculovirus expression system
T1 sequence (P09619 600-962 limits assumed): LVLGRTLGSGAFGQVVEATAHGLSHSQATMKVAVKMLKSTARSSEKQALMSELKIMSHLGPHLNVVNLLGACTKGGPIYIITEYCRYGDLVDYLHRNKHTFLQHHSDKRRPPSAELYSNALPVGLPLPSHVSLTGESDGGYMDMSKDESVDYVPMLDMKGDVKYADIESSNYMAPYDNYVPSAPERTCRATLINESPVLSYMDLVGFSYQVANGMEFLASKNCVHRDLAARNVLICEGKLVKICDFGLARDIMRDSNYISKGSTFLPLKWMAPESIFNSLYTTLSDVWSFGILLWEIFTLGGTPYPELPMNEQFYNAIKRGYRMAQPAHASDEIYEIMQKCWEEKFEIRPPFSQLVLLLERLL
Experimental: Cyclic substituted fused pyrrolocarbazole and isoindolone compounds were examined for their inhibitory effects on the kinase activity of baculovirus-expressed PDGFβ receptor kinase domain using the trkA kinase ELISA described above. Assays were performed in substrate (PLC-γ/GST)-coated 96-well microtiter plates. Each 100-μl reaction mixture contained 50 mM HEPES, pH 7.4, 20 μM ATP, 10 mM MnCl2, 0.1% BSA, 2% DMSO, and various concentrations of inhibitor. The reaction was initiated by addition of prephosphorylated recombinant human enzyme (10 ng/ml PDGFRβ) and allowed to proceed for 15 minutes at 37° C. The prephosphorylated enzyme was prepared prior to use by incubation of the kinase in buffer containing 20 μM ATP and 10 mM MnCl2 for 1 hour at 4° C. Detection of phosphorylated product was done by adding horseradish peroxidase (HRP)-conjugated antII-phosphotyrosine antibody (UBI). The HRP substrate solution containing 3,3′-5,5′-tetramethylbenzidine and hydrogen peroxide was later added and the plates were incubated for 10 minutes at room temperature. The reaction was quenched with acid and the resulting absorbance was read at 450 nm using a Microplate Bio-kinetics Reader (Bio-Tek Instrument EL 312e). Inhibition data were analyzed using the sigmoidal dose-response (variable slope) equation in GraphPad Prism.

[2] = target: T2, baculovirus-expressed human trkA cytoplasmic domain (Homo sapiens, UniProt P04629); experiment: Inhibition of trkA tyrosine kinase activity (ELISA-based assay); format: biochemical; details: for IC50: 40 μM ATP; for trkA kinase activity % Inh. @ 300 nM (values in parentheses): 300 nM compound
T2 construct: baculovirus-expressed human trkA cytoplasmic domain; made in house; host or cells: baculovirus expression system
T2 sequence (P04629 440-796 limits assumed): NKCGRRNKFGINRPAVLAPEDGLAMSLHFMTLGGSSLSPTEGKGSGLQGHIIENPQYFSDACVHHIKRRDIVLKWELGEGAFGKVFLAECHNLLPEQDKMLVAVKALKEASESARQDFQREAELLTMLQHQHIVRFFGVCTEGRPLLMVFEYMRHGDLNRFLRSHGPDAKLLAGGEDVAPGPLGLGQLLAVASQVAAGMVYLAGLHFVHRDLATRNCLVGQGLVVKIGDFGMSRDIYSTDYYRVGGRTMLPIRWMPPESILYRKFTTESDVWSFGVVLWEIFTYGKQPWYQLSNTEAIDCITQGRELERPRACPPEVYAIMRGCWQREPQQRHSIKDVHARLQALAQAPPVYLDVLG
Experimental: Selected cyclic substituted fused pyrrolocarbazole and isoindolone compounds were tested for their ability to inhibit the kinase activity of baculovirus-expressed human trkA cytoplasmic domain using an ELISA-based assay as previously described (Angeles et al., Anal. Biochem. 236: 49-55, 1996). Briefly, the 96-well microtiter plate was coated with substrate solution (recombinant human phospholipase C-γ1/glutathione S-transferase fusion protein (Rotin et al., EMBO J., 11: 559-567, 1992). Inhibition studies were performed in 100 μl assay mixtures containing 50 mM Hepes, pH 7.4, 40 μM ATP, 10 mM MnCl2, 0.1% BSA, 2% DMSO, and various concentrations of inhibitor. The reaction was initiated by addition of trkA kinase and allowed to proceed for 15 minutes at 37° C. An antibody to phosphotyrosine (UBI) was then added, followed by a secondary enzyme-conjugated antibody, alkaline phosphatase-labelled goat antII-mouse IgG (Bio-Rad). The activity of the bound enzyme was measured via an amplified detection system (Gibco-BRL). Inhibition data were analyzed using the sigimoidal dose-response (variable slope) equation in GraphPad Prism.

[3] = system: protein kinase C (UBI; mixed isozymes of a, b, g); experiment: Inhibition of protein kinase C activity (Millipore Multiscreen TCA in-plate assay); format: biochemical
Experimental: Protein kinase C activity was assessed using the Millipore Multiscreen TCA “in-plate” assay as described in Pitt, A. M. and Lee, C. (J. Biomol. Screening, 1: 47-51, 1996). Assays were performed in 96-well Multiscreen-DP plates (Millipore). Each […] assay mixture contained 20 mM Hepes, pH 7.4, 10 mM MgCl2, 2.5 mM EGTA, 2.5 mM CaCl2, […] phosphatidyl serine, […] diolein, […] histone H-1 (Fluka), […] [γ-^32P]ATP, 1.5 ng protein kinase C (UBI; mixed isozymes of a, b, g), 0.1% BSA, 2% DMSO, and test cyclic substituted fused pyrrolocarbazole compound. The reaction was allowed to proceed for 10 min at 37° C., then quenched by adding ice cold 50% trichloroacetic acid. The plates were allowed to equilibrate for 30 min at 4° C., then washed with ice cold 25% TCA. Scintillation cocktail was added to the plates, and the radioactivity was determined using Wallac MicroBeta 1450 PLUS scintillation counter. The IC50 values were calculated by fitting the data to the sigmoidal dose-response (variable slope) equation in GraphPad Prism.

[4] = target: T3, VEGF receptor (human flk-1, KDR, VEGFR2) kinase domain (Homo sapiens, UniProt P35968); experiment: Inhibition of vascular endothelial growth factor receptor kinase activity (ELISA); format: biochemical; details: for inhibition at 0.3 µM: read-out: VEGF receptor kinase activity % Inh. @ 300 nM (values in parentheses)
T3 construct: VEGF receptor (human flk-1, KDR, VEGFR2) kinase domain; made in house; host or cells: baculovirus expression system
T3 sequence (P35968 834-1162 limits assumed): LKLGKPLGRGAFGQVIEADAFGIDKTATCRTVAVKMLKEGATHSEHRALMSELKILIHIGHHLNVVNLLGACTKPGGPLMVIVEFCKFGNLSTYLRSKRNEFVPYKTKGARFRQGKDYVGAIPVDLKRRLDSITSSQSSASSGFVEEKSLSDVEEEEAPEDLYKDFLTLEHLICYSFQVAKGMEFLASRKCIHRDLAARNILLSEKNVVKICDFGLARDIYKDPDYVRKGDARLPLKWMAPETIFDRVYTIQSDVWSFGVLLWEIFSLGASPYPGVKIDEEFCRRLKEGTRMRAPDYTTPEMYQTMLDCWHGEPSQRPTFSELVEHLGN
Experimental: Cyclic substituted fused pyrrolocarbazole and isoindolone compounds were examined for their inhibitory effects on the kinase activity of baculovirus-expressed VEGF receptor (human flk-1, KDR, VEGFR2) kinase domain using the procedure described for the trkA kinase ELISA assay described above. The kinase reaction mixture, consisting of 50 mM Hepes, pH 7.4, 40 μM ATP, 10 mM MnCl2, 0.1% BSA, 2% DMSO, and various concentrations of inhibitor, was transferred to PLC-γ/GST-coated plates. VEGFR kinase was added and the reaction was allowed to proceed for 15 min. at 37 C. Detection of phosphorylated product was accomplished by addition of antII-phosphotyrosine antibody (UBI). A secondary enzymeconjugated antibody was delivered to capture the antibody-phosphorylated PLC-γ/GST complex. The activity of the bound enzyme was measured via an amplified detection system (Gibco-BRL). Inhibition data were analyzed using the sigmoidal dose-response (variable slope) equation in GraphPad Prism.

[5] = system: ChAT activity in dissociated rat embryonic spinal cord culture; experiment: Enhancement of spinal cord ChAT activity; format: cell-based
Description: As discussed above, CHAT is a specific biochemical marker for functional cholinergic neurons. Cholinergic neurons represent a major cholinergic input into the hippocampal formation, olfactory nucleus, interpeduncular nucleus, cortex, amygdala, and parts of the thalamus. In the spinal cord, the motor neurons are cholinergic neurons which contain CHAT (Phelps et al., J. Comp. Neurol. 273:459-472 (1988)). ChAT activity has been used to study the effects of neurotrophins (e.g., NGF or NT-3) on the survival and/or function of cholinergic neurons. The ChAT assay also serves as an indication of the regulation of ChAT levels within cholinergic neurons.
For example, in these assays, a compound was directly added to a dissociated spinal cord culture. Compounds which increased ChAT activity at least 120% of the control activity were considered active.
Methods: Fetal rat spinal cord cells were dissociated, and experiments were performed as described (Smith et al., J. Cell Biology 101:1608-1621 (1985); Glicksman et al., J. Neurochem. 61:210-221 (1993)). […] ChAT activity was measured after 2 days in vitro using a modification of the Fonnum procedure (Fonnum, J. Neurochem. 24:407-409 (1975)) according to McManaman et al. and Glicksman et al. (McManamnan et al., Developmental Biology 125:311-320 (1988); Glicksman et al., J. Neurochem., supra).

[6] = target: T4, trkA (NIH3T3 cells transfected with trkA) (Homo sapiens, UniProt P04629); experiment: Inhibition of NGF-stimulated trk phosphorylation in a whole cell preparation; format: cell-based; details: NGF 10 ng/ml
T4 construct: expressed in transfected cells; host or cells: NIH3T3
T4 sequence (P04629 33-796, species assumed): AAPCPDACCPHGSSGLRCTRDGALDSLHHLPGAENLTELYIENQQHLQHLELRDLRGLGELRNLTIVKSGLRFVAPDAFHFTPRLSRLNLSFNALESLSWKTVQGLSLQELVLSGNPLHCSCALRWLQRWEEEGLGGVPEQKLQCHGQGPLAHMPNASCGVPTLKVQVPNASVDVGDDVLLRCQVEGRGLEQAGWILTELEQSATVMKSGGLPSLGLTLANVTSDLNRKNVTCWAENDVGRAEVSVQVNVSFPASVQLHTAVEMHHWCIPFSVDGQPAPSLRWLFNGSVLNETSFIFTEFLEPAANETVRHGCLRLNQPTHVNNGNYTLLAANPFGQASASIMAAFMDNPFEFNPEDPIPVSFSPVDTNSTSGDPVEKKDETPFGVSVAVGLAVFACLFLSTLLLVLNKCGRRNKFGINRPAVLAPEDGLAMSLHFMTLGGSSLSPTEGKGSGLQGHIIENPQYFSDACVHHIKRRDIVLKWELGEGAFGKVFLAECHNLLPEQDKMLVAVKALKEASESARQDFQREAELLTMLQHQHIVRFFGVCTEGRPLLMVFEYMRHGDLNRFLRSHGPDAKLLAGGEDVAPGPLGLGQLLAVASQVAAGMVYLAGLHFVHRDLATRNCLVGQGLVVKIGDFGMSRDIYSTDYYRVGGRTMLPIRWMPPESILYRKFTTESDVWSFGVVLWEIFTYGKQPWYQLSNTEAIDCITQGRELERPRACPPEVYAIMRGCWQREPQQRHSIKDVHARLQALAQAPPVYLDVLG
Experimental: NIH3T3 cells transfected with trkA were grown in 100 mm dishes. Subconfluent cells were serum-starved by replacing media with serum-free 0.05% BSA-DMEM containing compound (100 nM and 1 μM) or DMSO (added to controls) for one hour at 37° C. NGF (Harlan/Bioproducts for Science) was then added to the cells at a concentration of 10 ng/ml for 5 minutes. Cells were lysed in buffer containing detergent and protease inhibitors. Clarified cell lysates were normalized to protein using BCA method and immunoprecipitated with antII-trk antibody. Polyclonal antII-trk antibody was prepared against a peptide corresponding to the 14 amino acids at the carboxy terminus of trk (Martin-Zanca et al., Mol. Cell. Biol. 9: 24-33, 1989). The immune complexes were collected on Protein A Sepharose beads (Sigma Chem. Co., St. Lois, Mo.), separated by SDS polyacrylamide gel electrophoresis (SDS-PAGE), and transferred to a polyvinylidene difluoride (PVDF) membrane. The membrane was immunoblotted with antII-phosphotyrosine antibody (UBI), followed by incubation with horseradish peroxidase coupled goat antII-mouse IgG (Bio-Rad Laboratories, Hercules, Calif.). Phosphorylated proteins were visualized using ECL (Arnersham Life Science, Inc., Arlington Heights, Ill.). The area of the trk protein band was measured and compared to NGF-stimulated control. The inhibition scoring system used, based on percent decrease in trk protein band, was as follows: 0=no decrease; 1=1-25%; 2=26-49%; 3=50-75%; 4=76-100%.

Structure (SMILES)	inhibition at 0.3 µM ([1]; 300 nM compound) [%]	IC50 [2] [µM]	inhibition at 0.3 µM ([4]; 300 nM compound) [%]	other results
CC(C)(C)C(=O)OCC1(C2c3ccccc3-c3c4c(c5c([nH]c6ccccc65)c32)CNC4=O)CCCO1 (mixture of isomers) [II-20]				trkA kinase activity % Inh. @ 300 nM (values in parentheses) [2]: (39) %; Spinal Cord ChAT (% control) Activity at 30 nM ([5]; 30 nM compound): 132 % control; Spinal Cord ChAT (% control) Maximal Activity ([5]; @ 500 nM): 191 @ 500 nM % control
CCNC(=O)OCC1(C2c3ccccc3-c3c4c(c5c6ccccc6n(C(=O)NCC)c5c32)CNC4=O)CCCO1 (stereo not shown) [II-68]	0	0.245	31	
O=C1NCc2c1c1c(c3[nH]c4ccccc4c23)C(C2(O)CCCC2CN2CCOCC2)c2ccccc2-1 (mixture of isomers) [II-17]				PDGFRβ % inh @ 300 nM (values in parentheses) ([1]; 300 nM compound): (47) %; trkA kinase activity % Inh. @ 300 nM (values in parentheses) [2]: (33) %; VEGF receptor kinase activity % Inh. @ 300 nM (values in parentheses) ([4]; 300 nM compound): (33) %

Continued by falling IC50 [2], values first:

inhibition at 0.3 µM ([1]; 300 nM compound) [%]	IC50 [2] [µM]	inhibition at 0.3 µM ([4]; 300 nM compound) [%]	Structure (SMILES)	other results
29	0.399	20	CC1C=CC(C(O)C2c3ccccc3-c3c4c(c5c([nH]c6ccccc65)c32)CNC4=O)n2c(=O)n(-c3ccccc3)c(=O)n21 (stereo not shown) [II-64]	
5	0.32	26	O=C1NCc2c1c1c(c3c2c2ccccc2n3CC2CC2)C(CC2CC2)c2ccccc2-1 (stereo not shown) [II-65]	Protein kinase C activity, values in parentheses ([3]; concentration not given): (20)
18	0.024	49	CCNC(=O)n1c2ccccc2c2c3c(c4c(c21)C(C1(CO)CCCO1)c1ccccc1-4)C(=O)NC3 (stereo not shown) [II-69]	
	0.019		O=C1NCc2c1c1c(c3[nH]c4ccccc4c23)C(C2CCC(O)O2)c2ccccc2-1 (racemic) [II-23]	IC50 ([1]; 20 μM ATP): 0.648 µM; IC50 [3]: 0.644 µM; Cell Score @ 100 nM (percent decrease in trk protein band) ([6]; 100 nM compound): 2 (2=26-49%); Cell Score @ 1 uM (percent decrease in trk protein band) ([6]; 1 uM compound): 4 (4=76-100%); IC50 ([4]; 40 μM ATP): 0.079 µM
